The values below come from patent publication US20080103105A1, “HMG CoA REDUCTASE MEDIATED MODULATION OF NEUROGENESIS” (BrainCells, Inc., priority 2006, published 2008).

Like-named read-outs stand apart in the source and are kept apart here. A value given as a limit tells only on which side of the number the result lay.

Assay [1] deals with Human neural stem cells (hNSCs). In words: Neuronal differentiation of human neural stem cells (TUJ-1 staining). The assay is classed as cell-based. Particulars: for EC50: agent alone. The text has this: In one non-limiting example neurogenesis, a neurogenic response, and neurodifferentiation are all measured in an in vitro assay as follows. Human neural stem cells (hNSCs) are isolated and grown in monolayer culture, plated, treated with varying concentrations of a first neurogenic agent, or a combination of a first neurogenic agent with one or more additional neurogenic agents (test compound), and stained with TUJ-1 antibody to identify neurons and/or GFAP to identify astrocytes, as described in PCT Application No. US06/026677. Mitogen-free test media with a positive control is used for neuronal differentiation, and basal media without growth factors serves as a negative control. Neurogenesis is determined, for example, by measuring the proliferation and/or differentiation of the hNSCs in the presence of varying concentrations of test compound compared to the absence of the test compound (negative control). A neurogenic response is measured, for example, in a similar manner to neurogenesis, except that astrogenesis is also measured and the ratio of neurogenesis to astrogenesis is determined to measure the neurogenic response. Neurodifferentiation is measured, for example, by detecting neurodifferentiation specific expression markers which methods are known in the art.
Human neural stem cells (hNSCs) were isolated and grown in monolayer culture, plated, treated with varying concentrations of atorvastatin (test compound), and stained with TUJ-1 antibody, as described in U.S. Provisional Application No. 60/697,905 (U.S. Patent Publication 2007/0015138). Mitogen-free test media with a positive control for neuronal differentiation was used along with basal media without growth factors as a negative control.
Human neural stem cells (hNSCs) were isolated and grown in monolayer culture, plated, treated with varying concentrations of atorvastatin in the presence or absence of buspirone, and stained with TUJ-1 antibody for the detection of neuronal differentiation or GFAP antibody for the detection of astrocyte differentiation, as described in U.S. Provisional Application No. 60/697,905 (U.S. Patent Publication 2007/0015138). Mitogen-free test media with a positive control for neuronal differentiation was used along with basal media without growth factors as a negative control.
Human neural stem cells (hNSCs) were isolated and grown in monolayer culture, plated, treated with varying concentrations of atorvastatin in the presence or absence of ribavirin, and stained with TUJ-1 antibody for the detection of neuronal differentiation or GFAP antibody for the detection of astrocyte differentiation, as described in U.S. Provisional Application No. 60/697,905 (U.S. Patent Publication 2007/0015138). Mitogen-free test media with a positive control for neuronal differentiation was used along with basal media without growth factors as a negative control.
Human neural stem cells (hNSCs) were isolated and grown in monolayer culture, plated, treated with varying concentrations of atorvastatin in the presence or absence of tacrine, and stained with TUJ-1 antibody for the detection of neuronal differentiation or GFAP antibody for the detection of astrocyte differentiation, as described in U.S. Provisional Application No. 60/697,905 (U.S. Patent Publication 2007/0015138). Mitogen-free test media with a positive control for neuronal differentiation was used along with basal media without growth factors as a negative control.
Human neural stem cells (hNSCs) were isolated and grown in monolayer culture, plated, treated with varying concentrations of atorvastatin in the presence or absence of azakenpaullone, and stained with TUJ-1 antibody for the detection of neuronal differentiation or GFAP antibody for the detection of astrocyte differentiation, as described in U.S. Provisional Application No. 60/697,905 (U.S. Patent Publication 2007/0015138). […]

The next assay has as its target mGluR3 (Homo sapiens, UniProt Q14832). Particulars: read-out: IC50 against mGluR3; cited from earlier work.
The next assay concerns the target mGluR2 (Homo sapiens, UniProt Q14416). Particulars: read-out: IC50 against mGluR2; cited from earlier work.
In assay [2] the test system is Group I and Group III receptors. Particulars: at sub-mM concentrations; cited from earlier work.
For assay [3], the system named is KA, AMPA, and NMDA iGlu receptors. Particulars: cited from earlier work.
In assay [4] the test system is BrdU positive cells within the granule cell layer of the dentate gyrus. The procedure:
Male F344 rats were dosed 1× per day for 28-days with vehicle (n=12 per dose group, p.o.), 5.0 mg/kg fluoxetine (n=12 per dose group, p.o.), 15.0 mg/kg fluoxetine (n=12 per dose group, p.o.), 10.0 mg/kg atorvastatin (n=12 per dose group, p.o.) or the combination of fluoxetine (5.0 mg/kg, p.o.)+atorvastatin (10.0 mg/kg, p.o.).
Male F344 rats were dosed 1× per day for 21-days with 0 (vehicle only), 5.0 mg/kg fluoxetine (n=12 per dose group, p.o.), 15.0 mg/kg fluoxetine (n=12 per dose group, p.o.), 10.0 mg/kg atorvastatin (n=12 per dose group, p.o.) or the combination of fluoxetine (5.0 mg/kg, p.o.)+atorvastatin (10.0 mg/kg, p.o.). BrdU was administered once daily between days 9 and 14 (100 mg/kg/day, i.p., n=12 per dose group). […] Data are presented as percent change in BrdU positive cells per cubic mm dentate gyrus. […] Data are presented as the percentage of cells colabeled for BrdU and the mature neuronal marker NeuN within the dentate gyrus.

The target in a further assay is human mGlu3 (Homo sapiens, UniProt Q14832). As to conditions: low nanomolar range; read-out: EC50 against human mGlu3 receptors in vitro; cited from earlier work.
In another assay the target is human mGlu2 (Homo sapiens, UniProt Q14416). As to conditions: low nanomolar range; read-out: EC50 against human mGlu2 receptors in vitro; cited from earlier work.
The mark [5] stands for this setting: Homo sapiens, Neural stem cell, percentage of neuronal positive control, basal media values subtracted, read-out: EC50, neuronal differentiation, agent used alone.
Setting [6] is: Homo sapiens, Neural stem cell, maximum fixed to 120% for all conditions, read-out: EC50, neuronal differentiation, agent alone, maximum percent of positive control fixed to a common 120%.

Sequence of mGluR3 (Q14832 23-879): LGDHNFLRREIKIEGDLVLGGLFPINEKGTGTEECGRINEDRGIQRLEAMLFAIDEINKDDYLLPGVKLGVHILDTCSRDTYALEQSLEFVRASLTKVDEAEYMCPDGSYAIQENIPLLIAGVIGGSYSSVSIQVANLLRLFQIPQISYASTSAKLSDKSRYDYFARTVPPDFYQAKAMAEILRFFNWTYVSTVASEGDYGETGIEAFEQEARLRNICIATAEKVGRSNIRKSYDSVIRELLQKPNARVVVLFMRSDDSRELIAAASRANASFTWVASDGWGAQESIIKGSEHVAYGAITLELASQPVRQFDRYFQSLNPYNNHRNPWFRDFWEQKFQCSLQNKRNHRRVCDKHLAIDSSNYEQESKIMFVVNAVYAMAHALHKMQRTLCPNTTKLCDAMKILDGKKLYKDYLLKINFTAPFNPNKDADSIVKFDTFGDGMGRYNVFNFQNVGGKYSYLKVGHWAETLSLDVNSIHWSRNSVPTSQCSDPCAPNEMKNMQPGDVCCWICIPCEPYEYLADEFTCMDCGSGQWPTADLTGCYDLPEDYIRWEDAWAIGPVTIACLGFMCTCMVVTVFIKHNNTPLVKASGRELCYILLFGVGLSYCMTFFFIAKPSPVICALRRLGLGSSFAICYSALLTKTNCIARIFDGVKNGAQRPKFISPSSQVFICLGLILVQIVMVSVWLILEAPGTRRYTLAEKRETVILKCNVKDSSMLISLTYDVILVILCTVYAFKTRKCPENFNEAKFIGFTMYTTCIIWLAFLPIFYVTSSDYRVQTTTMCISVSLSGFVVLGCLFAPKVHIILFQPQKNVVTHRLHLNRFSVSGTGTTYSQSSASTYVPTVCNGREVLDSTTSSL
Sequence of human mGlu3 (Q14832 23-879): as above
Sequence of human mGlu2 (Q14416 19-872): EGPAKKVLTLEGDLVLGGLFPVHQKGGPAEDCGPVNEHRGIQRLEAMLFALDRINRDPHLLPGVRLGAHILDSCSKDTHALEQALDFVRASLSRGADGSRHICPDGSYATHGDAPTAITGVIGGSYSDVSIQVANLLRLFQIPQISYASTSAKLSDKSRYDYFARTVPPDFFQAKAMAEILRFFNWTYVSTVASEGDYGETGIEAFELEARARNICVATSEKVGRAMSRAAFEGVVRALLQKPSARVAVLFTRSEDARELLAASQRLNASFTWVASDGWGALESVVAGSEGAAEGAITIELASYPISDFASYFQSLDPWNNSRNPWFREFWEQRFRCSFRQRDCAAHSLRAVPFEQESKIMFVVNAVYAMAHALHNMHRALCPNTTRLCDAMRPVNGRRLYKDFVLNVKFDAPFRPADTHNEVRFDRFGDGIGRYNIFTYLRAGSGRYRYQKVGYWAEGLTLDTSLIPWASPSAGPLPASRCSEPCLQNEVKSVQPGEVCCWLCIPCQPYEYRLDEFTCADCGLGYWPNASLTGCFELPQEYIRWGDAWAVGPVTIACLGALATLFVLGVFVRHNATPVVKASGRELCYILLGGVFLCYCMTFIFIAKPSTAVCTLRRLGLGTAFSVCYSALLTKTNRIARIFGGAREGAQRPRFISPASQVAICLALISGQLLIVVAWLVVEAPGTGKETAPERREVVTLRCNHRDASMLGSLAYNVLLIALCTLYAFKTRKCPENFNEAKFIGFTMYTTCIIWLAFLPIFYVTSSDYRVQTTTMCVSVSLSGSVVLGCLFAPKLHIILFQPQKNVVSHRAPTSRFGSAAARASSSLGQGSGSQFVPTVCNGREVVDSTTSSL
Sequence of mGluR2 (Q14416 19-872): as above

As to `O=C1CC2(CCCC2)CC(=O)N1CCCCN1CCN(c2ncccn2)CC1` [buspirone], the EC50 in assay [1] (setting [5]) is 5.8 µM. `NCCc1c[nH]c2ccc(O)cc12` [serotonin]: the EC50 in assay [1] (setting [5]) amounted to 4.5 µM.

Regarding `O=C1Cc2c([nH]c3ccc(Br)cc23)-c2ncccc2N1` [azakenpaullone], the EC50 turned out to be 0.33 µM in assay [1] (setting [6]) and 1.1 µM in assay [1] (setting [5]). Moreover, the “maximum percent of positive control neuronal differentiation” value in assay [1] (addition of azakenpaullone) is recorded as “greater than 100%”. In the case of `Clc1ccc2c(c1)N=C(N1CCNCC1)c1ccccc1N2` [N-desmethylclozapine], in assay [1], the “neurogenic activity in assays as disclosed herein” value is given as “highly neurogenic”. As to `NC1(C(=O)O)CCc2cc(P(=O)(O)O)ccc21` (racemic) [APICA, (RS)-1-amino-5-phosphonoindan-1-carboxylic acid], the IC50 at mGluR3 and on mGluR2 was about 30 µM throughout. For the same compound, in assay [2], the “activity against Group I or Group III receptors” value was “no appreciable activity”. As for `Nc1nc2ncc(CNc3ccc(C(=O)N[C@@H](CCC(=O)O)C(=O)O)cc3)nc2c(=O)[nH]1` [folic acid], the EC50 in assay [1] (setting [5]) is 4.8 µM.

On to `N[C@](CC1c2ccccc2Oc2ccccc21)(C(=O)O)[C@H]1C[C@@H]1C(=O)O` [LY341495, (2S)-2-amino-2-(1S,2S-2-carboxycycloprop-1-yl)-3-(xanth-9-yl) propanoic acid], for which the “activity against KA, AMPA, and NMDA iGlu receptors” value in assay [3] is “substantially inactive”. Take `CC(C)c1c(C(=O)Nc2ccccc2)c(-c2ccccc2)c(-c2ccc(F)cc2)n1CC[C@@H](O)C[C@@H](O)CC(=O)O` [atorvastatin]: the “number of BrdU positive cells (percent change per cubic mm dentate gyrus)” value in assay [4] (10.0 mg/kg atorvastatin p.o. 1× per day) is “significantly increased”. The “number of new neurons within the granule cell layer of the dentate gyrus” value in assay [4] (atorvastatin 10.0 mg/kg p.o. alone or with fluoxetine 5.0 mg/kg p.o., 1× per day) was “significant increase”. Also, the EC50 was determined as 0.004 µM in assay [1] (setting [6]) and 0.0031 µM in assay [1] (percentage of neuronal positive control, basal media values subtracted, read-out: EC50, neuronal differentiation, agent used alone). In addition, in assay [1] (percent of neuronal positive control, combination relative to either agent alone), the “neuronal differentiation, result in words” value is given as “promoted neuronal differentiation”.

As for `Nc1c2c(nc3ccccc13)CCCC2` [tacrine], in assay [1] (setting [5]), the EC50 was 7.4 µM. On the same count and under the same terms, as for `NC(=O)c1ncn([C@@H]2O[C@H](CO)[C@@H](O)[C@H]2O)n1` [ribavirin], the figure is 3.8 µM. `NC1(C(=O)O)COC2C(C(=O)O)C21` (single isomer, unassigned; (-)) [LY379268, (−)-2-Oxa-4-aminobicyclohexane-4,6-dicarboxylic acid]: the EC50 at human mGlu3 and on human mGlu2 was under 0.01 µM each time.

For orientation: EC50 means the concentration giving half of the maximal effect. By IC50 is commonly meant the concentration that gives 50% inhibition.
